ChEMBL document CHEMBL1201862, “PubChem BioAssay data set” (2004)
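Cultured in 96-well plates, cells were exposed to test compound for 48 hours across five concentrations. GI50 marks 50% less growth.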 Calls of active or inactive are those of the source. Cut-off read from the data, not from the text of the source: active = GI50 up to about 1.1 µM and inactive = higher.

Tests used:
Assay in all cases: NCI-60 cell line screen, 48 h
OVCAR-4 = test system: OVCAR-4
HT-29 = test system: HT-29
T47D = test system: T47D
UO-31 = test system: UO-31
SK-MEL-2 = test system: SK-MEL-2
SR = test system: SR
MCF7 = test system: MCF7
LOX IMVI = test system: LOX IMVI
A549 = test system: A549
SF-295 = test system: SF-295
TK-10 = test system: TK-10
HCT-15 = test system: HCT-15
MDA-MB-435 = test system: MDA-MB-435
OVCAR-8 = test system: OVCAR-8
MDA-N = test system: MDA-N
RPMI-8226 = test system: RPMI-8226
HL-60 = test system: HL-60
MOLT-4 = test system: MOLT-4
SNB-75 = test system: SNB-75
SK-MEL-5 = test system: SK-MEL-5

Compound: CN(c1ccccc1)S(=O)(=O)c1ccc([N+](=O)[O-])cc1
- GI50 (OVCAR-4): > 100 µM (inactive)
- GI50 (HT-29): 69.5 µM (inactive)
- GI50 (T47D): > 100 µM (inactive)
- GI50 (UO-31): > 100 µM (inactive)
- GI50 (SK-MEL-2): > 100 µM (inactive)
- GI50 (SR): > 100 µM (inactive)
- GI50 (MCF7): > 100 µM (inactive)
- GI50 (LOX IMVI): > 100 µM (inactive)
- GI50 (A549): > 100 µM (inactive)
- GI50 (SF-295): > 100 µM (inactive)
- GI50 (TK-10): > 100 µM (inactive)
- GI50 (HCT-15): > 100 µM
- GI50 (MDA-MB-435): > 100 µM (inactive)
- GI50 (OVCAR-8): > 100 µM (inactive)
- GI50 (MDA-N): > 100 µM (inactive)
- GI50 (RPMI-8226): 61.5 µM (inactive)
- GI50 (HL-60): 57 µM (inactive)

Compound: CC(=O)[C@]1(O)Cc2c(O)c3c(c(O)c2C(OC2OC(C)C(O)C(O)C2F)C1)C(=O)c1ccccc1C3=O (stereo partly drawn)
- GI50 (OVCAR-4): 0.914 µM (active)
- GI50 (HT-29): 0.109 µM (active)
- GI50 (MOLT-4): < 0.01 µM (active)
- GI50 (T47D): 0.0395 µM (active)
- GI50 (UO-31): < 0.01 µM (active)
- GI50 (SK-MEL-2): 0.828 µM (active)
- GI50 (MCF7): < 0.01 µM (active)
- GI50 (LOX IMVI): 0.0713 µM (active)
- GI50 (A549): 0.019 µM (active)
- GI50 (SF-295): < 0.014 µM (active)
- GI50 (TK-10): 0.197 µM (active)
- GI50 (HCT-15): 0.0516 µM
- GI50 (SNB-75): 0.0664 µM (active)
- GI50 (MDA-MB-435): 0.371 µM (active)
- GI50 (OVCAR-8): 0.0238 µM (active)
- GI50 (MDA-N): 0.475 µM (active)
- GI50 (SK-MEL-5): 0.0516 µM (active)
- GI50 (RPMI-8226): < 0.0299 µM (active)
- GI50 (HL-60): < 0.01 µM (active)

Compound: NC(CC(=O)OCc1ccccc1)C(=O)OCc1ccccc1 (stereo not drawn)
- GI50 (T47D): > 100 µM (inactive)
- GI50 (UO-31): 69.5 µM (inactive)
- GI50 (SK-MEL-2): > 100 µM (inactive)
- GI50 (SR): > 100 µM (inactive)
- GI50 (MCF7): > 100 µM (inactive)
- GI50 (LOX IMVI): > 100 µM (inactive)
- GI50 (A549): > 100 µM (inactive)
- GI50 (SF-295): > 100 µM (inactive)
- GI50 (TK-10): > 100 µM (inactive)
- GI50 (HCT-15): > 100 µM
- GI50 (MDA-MB-435): > 100 µM (inactive)
- GI50 (OVCAR-8): > 100 µM (inactive)
- GI50 (MDA-N): > 100 µM (inactive)
- GI50 (SK-MEL-5): > 100 µM (inactive)
- GI50 (RPMI-8226): > 100 µM (inactive)

Compound: Oc1ccc2ccccc2c1-c1nnc(CCCCCCCCc2nnc(-c3c(O)ccc4ccccc34)o2)o1
- GI50 (OVCAR-4): 1.15 µM (inactive)
- GI50 (HT-29): 13.4 µM (inactive)
- GI50 (MOLT-4): 0.449 µM (active)
- GI50 (T47D): 4 µM (inactive)
- GI50 (UO-31): 0.389 µM (active)
- GI50 (SK-MEL-2): 5.87 µM (inactive)
- GI50 (MCF7): 8.95 µM (inactive)
- GI50 (LOX IMVI): 1.01 µM (active)
- GI50 (A549): 3.85 µM (inactive)
- GI50 (SF-295): 3.61 µM (inactive)
- GI50 (TK-10): 9.42 µM (inactive)
- GI50 (HCT-15): 0.815 µM
- GI50 (SNB-75): 21.4 µM (inactive)
- GI50 (MDA-MB-435): 4.24 µM (inactive)
- GI50 (OVCAR-8): 2.18 µM (inactive)
- GI50 (MDA-N): 4.23 µM (inactive)
- GI50 (SK-MEL-5): 0.838 µM (active)
- GI50 (RPMI-8226): 2.72 µM (inactive)
- GI50 (HL-60): 0.319 µM (active)

Compound: C=C(C)COc1cc(/N=C(/S)OC(C)C)ccc1Cl
- GI50 (OVCAR-4): 14.5 µM (inactive)
- GI50 (HT-29): 14.4 µM (inactive)
- GI50 (MOLT-4): 12.1 µM (inactive)
- GI50 (T47D): 13.3 µM (inactive)
- GI50 (UO-31): 13.5 µM (inactive)
- GI50 (SK-MEL-2): 13.6 µM (inactive)
- GI50 (MCF7): 15.4 µM (inactive)
- GI50 (LOX IMVI): 16.3 µM (inactive)
- GI50 (A549): 12.7 µM (inactive)
- GI50 (SF-295): 15.5 µM (inactive)
- GI50 (TK-10): 15.2 µM (inactive)
- GI50 (HCT-15): 15.7 µM
- GI50 (SNB-75): 15.2 µM (inactive)
- GI50 (MDA-MB-435): 15.2 µM (inactive)
- GI50 (OVCAR-8): 16.2 µM (inactive)
- GI50 (MDA-N): 16.7 µM (inactive)
- GI50 (SK-MEL-5): 19.5 µM (inactive)
- GI50 (RPMI-8226): 20 µM (inactive)
- GI50 (HL-60): 15.6 µM (inactive)

Compound: NC(=O)N/N=C(\Cc1nc2ccc(Cl)cc2nc1O)C(=O)Nc1ccc(Cl)cc1Cl
- GI50 (OVCAR-4): > 100 µM (inactive)
- GI50 (HT-29): > 100 µM (inactive)
- GI50 (MOLT-4): > 100 µM (inactive)
- GI50 (T47D): > 100 µM (inactive)
- GI50 (UO-31): > 100 µM (inactive)
- GI50 (SK-MEL-2): > 100 µM (inactive)
- GI50 (MCF7): > 100 µM (inactive)
- GI50 (LOX IMVI): > 100 µM (inactive)
- GI50 (A549): > 100 µM (inactive)
- GI50 (SF-295): > 100 µM (inactive)
- GI50 (TK-10): > 100 µM (inactive)
- GI50 (HCT-15): > 100 µM
- GI50 (SNB-75): > 100 µM (inactive)
- GI50 (MDA-MB-435): > 100 µM (inactive)
- GI50 (OVCAR-8): > 100 µM (inactive)
- GI50 (MDA-N): > 100 µM (inactive)
- GI50 (SK-MEL-5): > 100 µM (inactive)
- GI50 (RPMI-8226): > 100 µM (inactive)
- GI50 (HL-60): > 100 µM (inactive)
